Patent publication US8883963B2 (Cadila Healthcare Limited, priority 2007, dated 2014)

Tests used:
[1] = Stability in liver microsomes; format: in vitro ADME; conditions: 2 μM peptidomimetic, human liver microsomes, 37° C.; for half-life at 2 μM: pH 7.8, read-out: half-life (t1/2) when incubated with liver microsomes
Description: (§1) Reactions were terminated by the addition of TFA/H2O (15 mL, 10% (v/v)). […] The column was equilibrated with TFA/H20, at a flow rate of 1 mL/min.

DPP IV = DPP IV (Homo sapiens, UniProt P27487); assay: Stability against DPP IV enzyme; format: in vitro ADME; conditions: 37° C.; for % degradation of peptidomimetics in 24 h when incubated with DPP-IV enzyme: 2 μM peptidomimetic; for half-life at 2 μM: DPP IV enzyme, pH 7.8, 2 μM peptidomimetic, read-out: half-life (t1/2) when incubated with DPP-IV enzyme
Sequence of DPP IV (P27487 whole entry, species assumed): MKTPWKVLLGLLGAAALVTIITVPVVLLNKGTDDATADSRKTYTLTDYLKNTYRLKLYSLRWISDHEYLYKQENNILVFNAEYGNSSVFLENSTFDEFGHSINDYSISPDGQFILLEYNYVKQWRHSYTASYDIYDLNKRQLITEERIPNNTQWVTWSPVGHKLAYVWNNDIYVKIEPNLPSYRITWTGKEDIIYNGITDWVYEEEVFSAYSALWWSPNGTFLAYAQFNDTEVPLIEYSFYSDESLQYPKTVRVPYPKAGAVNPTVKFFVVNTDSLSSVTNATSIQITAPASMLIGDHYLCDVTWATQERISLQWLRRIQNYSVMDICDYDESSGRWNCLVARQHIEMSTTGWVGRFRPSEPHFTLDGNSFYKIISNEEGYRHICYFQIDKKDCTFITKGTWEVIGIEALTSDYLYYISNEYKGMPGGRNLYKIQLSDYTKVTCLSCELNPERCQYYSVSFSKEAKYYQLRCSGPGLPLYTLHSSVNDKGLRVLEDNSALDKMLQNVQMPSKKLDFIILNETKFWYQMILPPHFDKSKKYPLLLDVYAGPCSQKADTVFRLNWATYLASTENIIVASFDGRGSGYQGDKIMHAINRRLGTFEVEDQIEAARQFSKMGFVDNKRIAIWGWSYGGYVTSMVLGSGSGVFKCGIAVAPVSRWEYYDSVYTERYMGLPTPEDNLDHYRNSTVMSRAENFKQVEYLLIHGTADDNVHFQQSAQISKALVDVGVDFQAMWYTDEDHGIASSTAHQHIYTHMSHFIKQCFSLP
Description: as §1

[2] = Stability in simulated intestinal fluid; format: in vitro ADME; conditions: 2 μM peptidomimetic, simulated intestinal fluid pH 7.5, 37° C.
Description: as §1

[3] = Stability in simulated gastric fluid; format: in vitro ADME; conditions: 2 μM peptidomimetic, simulated gastric fluid pH 1.5, 37° C.
Description: as §1

Human GLP-1 receptor = biological target: T1, Human GLP-1 receptor (Homo sapiens, UniProt P43220); assay: In vitro Human GLP-1 R agonist activity (cyclic AMP determination) in CHO/human GLP1R cells; format: cell-based
T1 construct: The full-length cDNA was cloned in pcDNA3.1(+); expressed in transfected cells
T1 sequence (P43220 24-463): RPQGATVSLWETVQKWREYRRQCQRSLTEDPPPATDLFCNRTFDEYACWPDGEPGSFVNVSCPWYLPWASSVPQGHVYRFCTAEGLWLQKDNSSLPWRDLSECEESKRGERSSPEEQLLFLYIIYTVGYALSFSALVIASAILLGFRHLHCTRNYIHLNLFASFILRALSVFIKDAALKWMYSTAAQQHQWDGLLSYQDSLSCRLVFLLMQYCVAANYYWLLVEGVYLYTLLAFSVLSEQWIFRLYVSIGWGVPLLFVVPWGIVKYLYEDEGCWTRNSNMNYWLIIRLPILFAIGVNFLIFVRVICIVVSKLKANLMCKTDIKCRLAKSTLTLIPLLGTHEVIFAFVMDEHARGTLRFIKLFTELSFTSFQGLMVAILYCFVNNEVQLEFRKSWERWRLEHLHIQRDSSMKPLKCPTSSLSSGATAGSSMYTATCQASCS

[4] = Stability in human plasma; format: in vitro ADME; conditions: 2 μM peptidomimetic, pooled human plasma, 37° C.; for half-life at 2 μM: pH 7.8, read-out: half-life (t1/2) when incubated with human plasma
Description: as §1

human glucagon receptor = biological target: T2, human glucagon receptor (Homo sapiens, UniProt P47871); assay: In vitro human glucagon antagonist activity (inhibition of cAMP production) in CHO/human glucagon R cells; format: cell-based; conditions: with saturated concentration of glucagon peptide
T2 construct: The full-length cDNA was cloned in pcDNA3.1 (Invitrogen); expressed in transfected cells
T2 sequence (P47871 26-477): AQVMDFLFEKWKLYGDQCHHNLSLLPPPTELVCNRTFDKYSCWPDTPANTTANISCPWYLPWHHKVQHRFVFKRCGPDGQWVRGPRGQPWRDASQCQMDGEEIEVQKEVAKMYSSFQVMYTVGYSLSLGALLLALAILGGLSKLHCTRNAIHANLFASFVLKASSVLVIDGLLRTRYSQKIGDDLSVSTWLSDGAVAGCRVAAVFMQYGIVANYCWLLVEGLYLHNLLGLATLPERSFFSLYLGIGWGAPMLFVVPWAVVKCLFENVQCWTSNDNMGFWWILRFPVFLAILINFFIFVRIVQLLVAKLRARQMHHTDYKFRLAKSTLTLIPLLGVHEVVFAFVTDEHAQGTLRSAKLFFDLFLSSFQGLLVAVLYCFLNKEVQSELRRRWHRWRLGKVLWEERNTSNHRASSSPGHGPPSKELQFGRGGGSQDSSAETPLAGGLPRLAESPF

[5] = test system: RIN5F (Rat Insulinoma) cells; assay: In vitro glucose-dependent insulin secretion (RIN5F cell assay screening protocol); format: cell-based; conditions: 16.7 mM glucose load

SMILES | % degradation of peptidomimetics in 24 h when incubated with liver microsomes [1] [%] | half-life at 2 μM [1] [h] | % degradation of peptidomimetics in 24 h when incubated with DPP-IV enzyme (DPP IV) [%] | half-life at 2 μM (DPP IV) [h] | % degradation of peptidomimetics in 24 h when incubated with simulated intestinal fluid [2] [%] | % degradation of peptidomimetics in 24 h when incubated with simulated gastric fluid [3] [%] | Human GLP-1 R activity (cAMP release), % activity with respect to control (Human GLP-1 receptor; 1 nM test compound) [%] | Human GLP-1 R activity (cAMP release), % activity with respect to control (Human GLP-1 receptor; 10 nM test compound) [%] | Human GLP-1 R activity (cAMP release), % activity with respect to control (Human GLP-1 receptor; 100 nM test compound) [%] | Human GLP-1 R activity (cAMP release), % activity with respect to control (Human GLP-1 receptor; 1 μM test compound) [%] | Human GLP-1 R activity (cAMP release), % activity with respect to control (Human GLP-1 receptor; 10 μM test compound) [%] | % degradation of peptidomimetics in 24 h when incubated with human plasma [4] [%] | half-life at 2 μM [4] [h] | Human Glucagon receptor antagonistic activity shown as inhibition of cAMP production of Glucagon peptide (human glucagon receptor; 1 nM test compound) [pmol/ml/μg prt] | Human Glucagon receptor antagonistic activity shown as inhibition of cAMP production of Glucagon peptide (human glucagon receptor; 10 nM test compound) [pmol/ml/μg prt] | Human Glucagon receptor antagonistic activity shown as inhibition of cAMP production of Glucagon peptide (human glucagon receptor; 100 nM test compound) [pmol/ml/μg prt] | Human Glucagon receptor antagonistic activity shown as inhibition of cAMP production of Glucagon peptide (human glucagon receptor; 1 μM test compound) [pmol/ml/μg prt] | Human Glucagon receptor antagonistic activity shown as inhibition of cAMP production of Glucagon peptide (human glucagon receptor; 10 μM test compound) [pmol/ml/μg prt] | Insulin secretion ([5]; 0.1 nM test compd.) [pg/µg/h] | Insulin secretion ([5]; 1 nM test compd.) [pg/µg/h] | other results
CCc1cc(OC)ccc1-c1ccc(CC(NC(=O)[C@H](CC(=O)O)NC(=O)[C@H](CO)NC(=O)[C@@H](NC(=O)C(C)(Cc2ccccc2F)NC(=O)[C@@H](NC(=O)CNC(=O)C(CCC#N)NC(=O)C(C)(C)NC(=O)[C@@H](N)Cc2c[nH]cn2)[C@@H](C)O)[C@H](C)O)C(=O)NC(CCCc2ccccc2F)C(N)=O)cc1 (single isomer, unassigned) [compound 120] | 80 | 2 | 00 | > 24 | 00 | 41 | 99 ± 0.12 | 99 ± 0.15 | 99 ± 0.18 | 99 ± 0.03 | 99 ± 0.09 | 00 | > 24 | 0 | 0 | 0 | 0 | 0 | 16.3 ± 0.15 | 22.4 ± 0.21 | half-life at 2 μM ([2]; read-out: half-life (t1/2) when incubated with simulated intestinal fluid): > 24 h; half-life at 2 μM ([3]; read-out: half-life (t1/2) when incubated with simulated gastric fluid): 4 h; Insulin secretion ([5]; 10 nM test compd.): 36.2 ± 0.11 pg/µg/h
CCc1cc(OC)ccc1-c1ccc(CC(NC(=O)[C@H](CC(=O)O)NC(=O)[C@H](CO)NC(=O)[C@@H](NC(=O)C(C)(Cc2ccccc2F)NC(=O)[C@@H](NC(=O)CNC(=O)C(CCC#N)NC(=O)C(C)(C)NC(=O)[C@@H](N)Cc2c[nH]cn2)[C@H](C)O)[C@H](C)O)C(=O)N(C)C(CCCc2ccccc2)C(N)=O)cc1 (single isomer, unassigned) [compound 130] | 79 | 1 | 76 | 9 | 55 | 12 | 39 ± 0.10 | 81 ± 0.08 | 89 ± 0.09 | 96 ± 0.11 | 99 ± 0.16 | 78 | 8 | 5 ± 0.04 | 3 ± 0.02 | 1 ± 0.11 | 0 | 0 | 17.1 ± 0.11 | 23.1 ± 0.16 | half-life (t1/2) when incubated with simulated intestinal fluid [2]: (6) h; half-life (t1/2) when incubated with simulated gastric fluid [3]: (8) h; Insulin secretion ([5]; 10 nM test compd.): 37.0 ± 0.29 pg/µg/h
CCc1cc(OC)ccc1-c1ccc(CC(C(=O)N(C)C(CCCc2ccccc2)C(N)=O)N(C)C(=O)[C@H](CC(=O)O)N(C)C(=O)[C@H](CO)NC(=O)[C@@H](NC(=O)C(C)(Cc2ccccc2F)NC(=O)[C@@H](NC(=O)CNC(=O)C(CCC#N)NC(=O)C(C)(C)NC(=O)[C@@H](N)Cc2c[nH]cn2)[C@H](C)O)[C@H](C)O)cc1 (single isomer, unassigned) [compound 154] | 83 | 1 | 74 | 9 | 46 | 12 | 60 ± 0.12 | 92 ± 0.15 | 98 ± 0.18 | 99 ± 0.03 | 99 ± 0.09 | 75 | 8 | 9 ± 0.11 | 6 ± 0.12 | 5 ± 0.14 | 3 ± 0.22 | 0 | 16.1 ± 0.22 | 22.1 ± 0.26 | half-life (t1/2) when incubated with simulated intestinal fluid [2]: (6) h; half-life (t1/2) when incubated with simulated gastric fluid [3]: (8) h; Insulin secretion ([5]; 10 nM test compd.): 36.0 ± 0.36 pg/µg/h
CCc1cc(OC)ccc1-c1ccc(CC(NC(=O)[C@H](CC(=O)O)NC(=O)[C@H](CO)NC(=O)[C@@H](NC(=O)C(C)(Cc2ccccc2F)NC(=O)[C@@H](NC(=O)CNC(=O)C(CCC#N)NC(=O)C(C)(C)NC(=O)[C@@H](N)Cc2c[nH]cn2)[C@H](C)O)[C@H](C)O)C(=S)NC(CCCc2ccccc2)C(N)=O)cc1 (single isomer, unassigned) [compound 166] | 77 | 1 | 86 | 9 | 41 | 15 | 96 ± 0.02 | 99 ± 0.46 | 99 ± 0.41 | 99 ± 0.66 | 99 ± 0.03 | 70 | 8 | 19 ± 0.03 | 17 ± 0.08 | 15 ± 0.01 | 14 ± 0.02 | 12 ± 0.11 | 15.4 ± 0.14 | 21.2 ± 0.18 | half-life (t1/2) when incubated with simulated intestinal fluid [2]: (6) h; half-life (t1/2) when incubated with simulated gastric fluid [3]: (8) h; Insulin secretion ([5]; 10 nM test compd.): 35.6 ± 0.17 pg/µg/h
